Literature values, collected in patent US6077537A (Warner-Lambert Company, priority 1998, dated 2000).

Conditions: relative to parent compound

plasma concentration of principal active metabolite: well below those of parent compound
Structure (SMILES): Cc1ccc(C(=CCN2CCCC2)c2cccc(CCC(=O)O)n2)cc1 [propionic acid analogue of acrivastine]
